Assay results as given in publication PMC10974533, “Cationicity Enhancement on the Hydrophilic Face of Ctriporin Significantly Reduces Its Hemolytic Activity and Improves the Antimicrobial Activity against Antibiotic-Resistant ESKAPE Pathogens” (Toxins, 2024).
Where a SMILES comes first, the peptide text is derived from it.

Legend:
Type in all cases: cell-based
A. baumannii ATCC19606 = assay: MIC, broth dilution, standard strain; conditions: broth dilution (CLSI), MHB, 37 °C, 16–20 h
In short: (§1)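 MHB, 37 °C; inoculum 5 × 10^5 CFU/mL (final) from mid-growth phase; peptides 1, 2, 4, 8, 16, 32, 64 μg/mL; CLSI broth dilution; ≥3 repeats.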

E. coli ATCC25922 = assay: MIC, broth dilution, standard strain; conditions: broth dilution (CLSI), MHB, 37 °C, 16–20 h
In short: as §1

E. faecium ATCC29212 = assay: MIC, broth dilution, standard strain; conditions: broth dilution (CLSI), MHB, 37 °C, 16–20 h
In short: as §1

K. pneumoniae ATCC700603 = assay: MIC, broth dilution, standard strain; conditions: broth dilution (CLSI), MHB, 37 °C, 16–20 h
In short: as §1

S. aureus ATCC29213 = assay: MIC, broth dilution, standard strain; conditions: broth dilution (CLSI), MHB, 37 °C, 16–20 h
In short: as §1

[1] = test system: human red blood cells (hRBC); assay: Hemolytic activity determination; conditions: 256 μg/mL peptide, 2% (v/v) hRBC, 37 °C, 1 h, OD540, 1% Triton X-100 = 100%; average ± standard error of three independent experiments
In short: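 Washed citrate-anticoagulated human erythrocytes, 2% (v/v) final, were incubated with peptide at 0–512 μg/mL for 1 h at 37 °C. Haemoglobin release was read at OD540, normalized to saline (0%) and 1% Triton X-100 (100%). Mean ± SE of three independent experiments.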

A. baumannii 19295 = assay: MIC, broth dilution, clinical isolate; conditions: CRE/MDR clinical isolate
Method: (§2) The standard strains, including S. aureus ATCC29213 and ATCC25923, E. faecalis ATCC29212, E. coli ATCC25922 and ATCC35218, A. baumannii ATCC19606, K. pneumoniae ATCC700603, and P. aeruginosa ATCC27853, were purchased from the China Center of Type Culture Collection (CCTCC). The clinical strains of the ESKAPE pathogens were isolated from the affiliated hospitals of Hubei University of Medicine. All of them were stored at −80 °C before use. The drug sensitivities of the clinical strains were determined by the Kirby–Bauer test.
(§3) The MICs were determined using the broth dilution method according to the guidelines of the Clinical and Laboratory Standards Institute (CLSI), as described in the previous studies. Briefly, the bacterial cells were incubated in Mueller–Hinton broth (MHB, Oxoid, Basingstoke, UK) at 37 °C and 150 rpm to the mid-growth phase and diluted to achieve a final concentration of 5 × 10^5 colony-forming units per milliliter (CFU/mL). Then, the cells were mixed with each peptide in different concentrations (1, 2, 4, 8, 16, 32, and 64 μg/mL). […] All experiments were repeated at least three times.

A. baumannii 19462 = assay: MIC, broth dilution, clinical isolate; conditions: CRE/MDR clinical isolate
Method: as §2, §3

A. baumannii 19618 = assay: MIC, broth dilution, clinical isolate; conditions: CRE/MDR clinical isolate
Method: as §2, §3

E. coli 2678 = assay: MIC, broth dilution, clinical isolate; conditions: ESBL clinical isolate
Method: as §2, §3

E. coli 2687 = assay: MIC, broth dilution, clinical isolate; conditions: ESBL clinical isolate
Method: as §2, §3

E. faecium 898 = assay: MIC, broth dilution, clinical isolate; conditions: MDR clinical isolate
Method: as §2, §3

K. pneumoniae 9126 = assay: MIC, broth dilution, clinical isolate; conditions: CRE clinical isolate
Method: as §2, §3

P. aeruginosa 9014 = assay: MIC, broth dilution, clinical isolate; conditions: CRE/MDR clinical isolate
Method: as §2, §3

S. aureus 891 = assay: MIC, broth dilution, clinical isolate; conditions: MRSA clinical isolate
Method: as §2, §3

S. aureus 9124 = assay: MIC, broth dilution, clinical isolate; conditions: MRSA clinical isolate
Method: as §2, §3

S. capitis 3255 = assay: MIC, broth dilution, clinical isolate; conditions: MRSC clinical isolate
Method: as §2, §3

S. epidermidis 6943 = assay: MIC, broth dilution, clinical isolate; conditions: MRSE clinical isolate
Method: as §2, §3

S. epidermidis 9092 = assay: MIC, broth dilution, clinical isolate; conditions: MRSE clinical isolate
Method: as §2, §3

[2] = 5 × 10^5 CFU/mL, OD630, repeated at least three times
[3] = broth dilution (CLSI), MHB, 5 × 10^5 CFU/mL, 37 °C, 16–20 h, OD630

CC[C@H](C)[C@H](NC(=O)[C@H](C)NC(=O)CNC(=O)[C@@H]1CCCN1C(=O)[C@@H](NC(=O)[C@H](CC(C)C)NC(=O)CNC(=O)[C@H](Cc1c[nH]c2ccccc12)NC(=O)[C@H](CC(C)C)NC(=O)[C@@H](N)Cc1ccccc1)[C@@H](C)CC)C(=O)N[C@@H](CO)C(=O)N[C@@H](C)C(=O)N[C@H](C(=O)N[C@H](C(=O)N[C@@H](CO)C(=O)N[C@@H](CC(C)C)C(=O)N[C@H](C(=O)N[C@@H](CCCCN)C(=O)N[C@@H](CCCCN)C(N)=O)[C@@H](C)CC)[C@@H](C)O)C(C)C [Ctriporin] (H-FLWGLIPGAISAVTSLIKK-NH2; N-terminus assumed)
MICs (A. baumannii ATCC19606; [2]): 16 µg/mL
MICs (A. baumannii ATCC19606; value in parentheses): 8.0 µM
MICs (E. coli ATCC25922; [2]): 64 µg/mL
MICs (E. coli ATCC25922; value in parentheses): 31.8 µM
MICs (E. faecium ATCC29212; [2]): 64 µg/mL
MICs (E. faecium ATCC29212; value in parentheses): 31.8 µM
MICs (K. pneumoniae ATCC700603; [2]): > 64 µg/mL
MICs (K. pneumoniae ATCC700603; value in parentheses): > 31.8 µM
MICs (S. aureus ATCC29213; [2]): 16 µg/mL
MICs (S. aureus ATCC29213; value in parentheses): 8.0 µM
Hemolysis% at 256 μg/mL [1]: 90.6 ± 11.8%
MICs (A. baumannii 19295; [3]): 32 µg/mL
MICs (A. baumannii 19295; value in parentheses): 15.9 µM
MICs (A. baumannii 19462; [3]): 16 µg/mL
MICs (A. baumannii 19462; value in parentheses): 8.0 µM
MICs (A. baumannii 19618; [3]): 32 µg/mL
MICs (A. baumannii 19618; value in parentheses): 15.9 µM
MICs (E. coli 2678; [3]): 64 µg/mL
MICs (E. coli 2678; value in parentheses): 31.8 µM
MICs (E. coli 2687; [3]): > 64 µg/mL
MICs (E. coli 2687; value in parentheses): > 31.8 µM
MICs (E. faecium 898; [3]): 16 µg/mL
MICs (E. faecium 898; value in parentheses): 8.0 µM
MICs (K. pneumoniae 9126; [3]): > 64 µg/mL
MICs (K. pneumoniae 9126; value in parentheses): > 31.8 µM
MICs (P. aeruginosa 9014; [3]): > 64 µg/mL
MICs (P. aeruginosa 9014; value in parentheses): > 31.8 µM
MICs (S. aureus 891; [3]): 16 µg/mL
MICs (S. aureus 891; value in parentheses): 8.0 µM
MICs (S. aureus 9124; [3]): 8 µg/mL
MICs (S. aureus 9124; value in parentheses): 4.0 µM
MICs (S. capitis 3255; [3]): 8 µg/mL
MICs (S. capitis 3255; value in parentheses): 4.0 µM
MICs (S. epidermidis 6943; [3]): 8 µg/mL
MICs (S. epidermidis 6943; value in parentheses): 4.0 µM
MICs (S. epidermidis 9092; [3]): 8 µg/mL
MICs (S. epidermidis 9092; value in parentheses): 4.0 µM
